Patent publication US20030161867A1, “Skin-permeable selective cyclooxygenase-2 inhibitor composition” (priority 2001, published 2003)
“And” between values parts separate entries of the source, which are not always exact repeats. Equal entries are not always repeated.

Columns and labels:
[1] = Skin permeation (skin flux) in Franz diffusion cell; format: in vitro ADME, human; conditions: for Normalized skin flux: normalized to a standard run on each skin lot
Protocol: Suitable receptor fluids can be selected by one of skill in the art, but presently preferred receptor fluids are a 1% polysorbate 80 solution and a 6% polyethylene glycol (20) oleyl ether (oleth-20) solution. The receptor fluid is maintained at a suitable temperature, preferably a temperature approximating living human skin temperature. A receptor fluid temperature of 32° C. has been found suitable. The membrane is oriented so that its internal surface, i.e., the surface opposite the epidermal surface, is placed in contact with the receptor fluid. Air bubbles are removed from the receptor fluid, which is then allowed to equilibrate for 30 minutes with the membrane. A test sample of a composition is placed in contact with the epidermal surface of the membrane, and left in place for a desired period, for example 24 hours. […] The receptor compartment of the Franz diffusion cell was filled with the receptor fluid and the diffusion cell was maintained at 32° C. The membrane was mounted on the receptor compartment, covered and fastened with a clamp. Air bubbles were removed from the receptor fluid, which was allowed to equilibrate for 30 minutes. A test composition was brought into contact with the membrane. […] Each test was conducted in several replicates.

[2] = Distribution of drug in epidermis and dermis after Franz cell skin permeation test; format: in vitro ADME, human
Text: As a way of measuring the skin permeation properties of selective COX-2 inhibitory drugs or prodrugs in dermally deliverable pharmaceutical compositions, a Franz diffusion cell was provided utilizing a human cadaver skin membrane and a 1% polysorbate 80 (Tween™ 80) solution as a receptor fluid. Frozen skin was thawed at room temperature and punched with a 20 mm puncher to provide a membrane. The receptor compartment of the Franz diffusion cell was filled with the receptor fluid and the diffusion cell was maintained at 32° C. The membrane was mounted on the receptor compartment, covered and fastened with a clamp. Air bubbles were removed from the receptor fluid, which was allowed to equilibrate for 30 minutes. A test composition was brought into contact with the membrane. The amount of drug which permeated through the membrane in a 24 hour period was determined by HPLC analysis of the receptor fluid. Each test was conducted in several replicates.
Distribution of drug in epidermis and dermis was also determined. Results are shown in Table 6, by comparison with the solution compositions of Examples 1 and 2.

[3] = Drug concentration of saturated solutions; format: physicochemical
Protocol: Saturated solutions of celecoxib were prepared in the following solvents: 70% aqueous ethanol (EtOH), ethanol, PEG-400 and propylene glycol (PG). The solutions were tested for skin permeation properties as described above, using 250 μl drops of each test solution.
Since different lots of skin were used to determine the skin flux of each compound, a standard was run on each skin lot and the data were normalized.
The solutions were tested for skin permeation properties as described above.

[4] = Skin permeation (skin flux) in Franz diffusion cell; format: in vitro ADME, human; conditions: saturated aqueous solution, 50° C.
[5] = target: COX-1 (Homo sapiens, UniProt P23219); conditions: in vitro; cited from earlier work
[6] = target: T1, COX-2 (Homo sapiens, UniProt P35354); conditions: in vitro; cited from earlier work
T1 sequence (P35354 18-604): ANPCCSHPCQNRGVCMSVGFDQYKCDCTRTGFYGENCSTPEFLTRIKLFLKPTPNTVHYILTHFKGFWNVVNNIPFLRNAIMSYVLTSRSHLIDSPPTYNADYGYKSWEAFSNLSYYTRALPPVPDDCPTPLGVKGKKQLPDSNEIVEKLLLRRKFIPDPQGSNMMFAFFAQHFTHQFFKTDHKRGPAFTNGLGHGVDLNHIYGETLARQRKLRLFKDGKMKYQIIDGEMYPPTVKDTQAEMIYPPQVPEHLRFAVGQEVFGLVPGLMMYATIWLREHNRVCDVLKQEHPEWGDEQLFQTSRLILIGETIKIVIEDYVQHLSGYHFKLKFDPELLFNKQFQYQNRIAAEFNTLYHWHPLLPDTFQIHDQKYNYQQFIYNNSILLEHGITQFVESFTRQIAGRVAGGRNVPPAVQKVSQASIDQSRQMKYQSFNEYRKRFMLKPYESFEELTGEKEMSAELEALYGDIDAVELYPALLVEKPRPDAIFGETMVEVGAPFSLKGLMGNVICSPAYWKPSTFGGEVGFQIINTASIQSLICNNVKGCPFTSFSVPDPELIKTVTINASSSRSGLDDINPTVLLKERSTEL

[7] = 5% oleyl alcohol and 3% thymol in 70% aqueous ethanol, versus skin flux data in Table 2
[8] = Celecoxib + parecoxib Na composition: saturated celecoxib in 67% aqueous ethanol containing 5% parecoxib sodium
[9] = gel, 1% drug (10 mg/ml) in 70% aqueous ethanol with 3% Klucel, 50 mg applied, non-occlusive
[10] = saturated aqueous solution, 32° C.
[11] = saturated solution in 70% aqueous ethanol containing 5% oleyl alcohol and 3% thymol, 250 μl
[12] = saturated solution in 70% aqueous ethanol, 250 μl, occlusive, 24 hour period, 32° C.
[13] = saturated solution in 70% aqueous ethanol, skin donor 3
[14] = saturated solution in 70% aqueous ethanol, skin donor 4
[15] = saturated solution in 70% aqueous ethanol
[16] = saturated solution in PEG-400, 250 μl, 24 hour period
[17] = saturated solution in ethanol (EtOH), 250 μl, 24 hour period
[18] = saturated solution in propylene glycol (PG), 250 μl, 24 hour period
[19] = with 5% parecoxib sodium in 67% aqueous ethanol, versus Table 2 data in absence of parecoxib sodium
[20] = gel, 1% drug in 70% aqueous ethanol with 3% Klucel, 50 mg, non-occlusive
[21] = saturated solution in 70% aqueous ethanol, 250 μl, occlusive
[22] = Valdecoxib + parecoxib Na composition: saturated valdecoxib in 67% aqueous ethanol containing 5% parecoxib sodium

Chain of COX-1 (P23219 24-599): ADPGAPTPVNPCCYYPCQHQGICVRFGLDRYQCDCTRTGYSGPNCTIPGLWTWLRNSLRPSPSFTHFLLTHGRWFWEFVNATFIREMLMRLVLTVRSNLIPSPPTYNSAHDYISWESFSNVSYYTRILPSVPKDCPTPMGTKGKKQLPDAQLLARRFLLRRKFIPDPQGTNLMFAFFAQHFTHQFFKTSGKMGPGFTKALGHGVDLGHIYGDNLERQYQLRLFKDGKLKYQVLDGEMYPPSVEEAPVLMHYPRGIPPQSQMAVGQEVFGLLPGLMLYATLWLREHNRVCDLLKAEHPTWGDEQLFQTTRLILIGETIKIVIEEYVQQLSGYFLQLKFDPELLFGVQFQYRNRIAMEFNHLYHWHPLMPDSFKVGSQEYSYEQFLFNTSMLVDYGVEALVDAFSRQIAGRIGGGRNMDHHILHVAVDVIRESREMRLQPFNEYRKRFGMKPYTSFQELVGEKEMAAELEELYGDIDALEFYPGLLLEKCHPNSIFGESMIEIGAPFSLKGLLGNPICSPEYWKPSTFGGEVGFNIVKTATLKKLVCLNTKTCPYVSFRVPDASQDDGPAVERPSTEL

Cc1ccc(-c2cc(C(F)(F)F)nn2-c2ccc(S(N)(=O)=O)cc2)cc1 [celecoxib, 4-[5-(4-methylphenyl)-3-(trifluoromethyl)-1H-pyrazol-1-yl]benzenesulfonamide]
Enhancement factor [1, 7]: 1.4
Skin flux [1, 8]: 183 ± 153 μg/cm^2 · day
Skin flux [1, 9]: 3.82 ± 3.36 μg/cm^2 · day
Skin flux [1, 10]: 4.27 ± 0.84 μg/cm^2 · day
Celecoxib permeation ([1]; saturated celecoxib solution in 70% ethanol, amount in receptor fluid after 15 hours): 1.406 ± 0.086 μg/cm^2
Skin flux [1, 11]: 21.7 ± 4.6 μg/cm^2 · day
Skin flux [1, 12]: 15.7 μg/cm^2 · day and 15.7 ± 3.83 μg/cm^2 · day
Skin flux ([1]; saturated solution in 70% aqueous ethanol, 250 μl, occlusive, 24 hour period, 32° C., listed as Celecoxib): 15.7 ± 3.83 μg/cm^2 · day
Skin flux ([1]; saturated solution in 70% aqueous ethanol, skin donor 1): 15.7 ± 3.8 μg/cm^2 · day
Skin flux [1, 13]: 73.7 ± 11.8 μg/cm^2 · day
Skin flux [1, 14]: 31.9 ± 9.6 μg/cm^2 · day
Skin flux ([1]; saturated solution in 70% aqueous ethanol, skin donor 6): 50.4 ± 12.7 μg/cm^2 · day
Normalized skin flux [1, 15]: 34.9 μg/cm^2 · day
Skin flux [1, 16]: No skin permeation
Skin flux ([1]; saturated solution in PEG-400, 250 μl, 24 hour period, listed as Celecoxib): ud
Skin flux [1, 17]: 5.62 ± 1.49 μg/cm^2 · day
Skin flux [1, 18]: No skin permeation
Skin flux ([1]; saturated solution in propylene glycol (PG), 250 μl, 24 hour period, listed as Celecoxib): ud
Enhancement factor [1, 19]: 11.5
Drug in dermis [2, 20]: 1.22 ± 0.51 µg
Drug in epidermis [2, 20]: 2.36 ± 1.06 µg
Drug in dermis [2, 21]: 2.50 ± 1.53 µg
Drug in epidermis [2, 21]: 3.92 ± 0.79 µg
Concentration ([3]; saturated aqueous solution): 0.5 µg/mL
Concentration ([3]; saturated in 67% aqueous ethanol containing 5% parecoxib sodium): 15900 µg/mL
Concentration [3, 15]: 15200 µg/mL
Concentration ([3]; saturated solution in PEG-400): 297000 µg/mL
Concentration ([3]; saturated solution in ethanol (EtOH)): 91400 µg/mL
Concentration ([3]; saturated solution in propylene glycol (PG)): 33300 µg/mL
Skin flux [4]: 23.71 ± 4.42 μg/cm^2 · day

CCC(=O)NS(=O)(=O)c1ccc(-c2c(-c3ccccc3)noc2C)cc1 [parecoxib Na]
Enhancement factor [1, 7]: 4.8
Skin flux [1, 11]: 1210 ± 58.0^ μg/cm^2 · day
Skin flux [1, 12]: 254 ± 164 μg/cm^2 · day
Normalized skin flux [1, 15]: 120.0 μg/cm^2 · day
Concentration [3, 15]: 386000 µg/mL

CCC(=O)NS(=O)(=O)c1ccc(-c2c(-c3ccccc3)noc2C)cc1 [parecoxib, N-[[4-(5-methyl-3-phenylisoxazol-4-yl)phenyl]sulfonyl]propanamide]
Skin flux [1, 8]: 74.7 ± 14.7 μg/cm^2 · day
Skin flux [1, 22]: 64.1 ± 11.3 μg/cm^2 · day
Skin flux [1, 10]: 8.62 ± 1.94 μg/cm^2 · day
Concentration ([3]; saturated aqueous solution): 50.8 µg/mL
Skin flux [4]: 47.16 ± 3.70 μg/cm^2 · day
inhibitory activity against COX-1 [5]: weak in vitro inhibitory activity
inhibitory activity against COX-2 [6]: weak in vitro inhibitory activity

Cc1onc(-c2ccccc2)c1-c1ccc(S(N)(=O)=O)cc1 [valdecoxib, 4-[5-methyl-3-phenylisoxazol-4-yl]benzenesulfonamide]
Enhancement factor [1, 7]: 25
Skin flux [1, 22]: 108 ± 16.7 μg/cm^2 · day
Skin flux [1, 9]: 11.3 ± 6.48 μg/cm^2 · day
Skin flux [1, 10]: 7.94 ± 0.89 μg/cm^2 · day
Skin flux [1, 11]: 323 ± 21 μg/cm^2 · day
Skin flux [1, 12]: 12.8 μg/cm^2 · day and 12.8 ± 4.96 μg/cm^2 · day
Skin flux ([1]; saturated solution in 70% aqueous ethanol, 250 μl, occlusive, 24 hour period, 32° C., listed as Valdecoxib): 12.8 ± 4.96 μg/cm^2 · day
Skin flux ([1]; saturated solution in 70% aqueous ethanol, skin donor 2): 12.8 ± 5.0 μg/cm^2 · day
Skin flux [1, 13]: 91.9 ± 15.0 μg/cm^2 · day
Skin flux [1, 14]: 58.3 ± 11.0 μg/cm^2 · day
Normalized skin flux [1, 15]: 53.4 μg/cm^2 · day
Skin flux [1, 16]: No skin permeation
Skin flux ([1]; saturated solution in PEG-400, 250 μl, 24 hour period, listed as Valdecoxib): ud
Skin flux [1, 17]: 1.44 ± 0.54 μg/cm^2 · day
Skin flux [1, 18]: No skin permeation
Skin flux ([1]; saturated solution in propylene glycol (PG), 250 μl, 24 hour period, listed as Valdecoxib): ud
Enhancement factor [1, 19]: 8.4
Drug in dermis [2, 20]: ud
Drug in epidermis [2, 20]: 1.81 ± 1.87 µg
Drug in dermis [2, 21]: 0.543 ± 0.525 µg
Drug in epidermis [2, 21]: 9.27 ± 3.84 µg
Skin flux [4]: 42.12 ± 7.82 μg/cm^2 · day
inhibitory activity against COX-1 [5]: weak inhibitor
